# Legend:
# [1] = In vitro dissolution testing (USP Apparatus 1, basket); type: physicochemical; conditions: DI water
# Method: Dissolution and assay testing for API, F1, F7, F9, F10, F11 and F12.
# • 6. Transfer 500 mL of DI water dissolution medium into each vessel. • 7. Equilibrate the dissolution medium to 37.0±0.5° C. • 8. Transfer 600 mg of each formulation granule into a capsule. • 9. Transfer a capsule into a basket and lower to the position. Start stirring at 100 RPM. • 10. At the stated time(s), sample 1 mL solutions by auto-sampler. Assay Sample Preparation (0.3 mg/mL): • 11. Weigh out 18 mg of granules into a […] volumetric flask. • 12. Dissolve and dilute up to the volume with Diluent (50% ACN in H2O). • 13. Mix well.
# [2] = Particle size distribution by dynamic light scattering (Zetasizer); type: physicochemical; conditions: in length
# Method: Results: Particle size distribution as determined by dynamic light scattering of Compound 1 lysine salt nanosuspension post milling is shown below in Table 1B. Samples for particle size distribution was prepared by diluting the Nano milled sample by 100-fold with Di-water. Zetasizer was utilized to measure particle size distribution. PdI is the representation of the distribution of size populations within a given sample. This is a numerical range from 0.0 (for a perfectly uniform sample) through 1.0 (for a highly polydisperse sample with multiple particle size populations). The value D10 refers to a diameter of particles in the sample wherein 10% of the particles in the sample have a diameter smaller than this value (118.8 nm). The value D50 refers to a diameter of particles in the sample wherein 50% of the particles have a diameter smaller than this value (249.0 nm). The value D90 refers to a diameter of particles in the sample wherein 90% of the particles in the sample have a diameter smaller than this value (611 nm).
# The stability of the nanosuspension based on particle size distribution under refrigerated condition and room condition is shown below in Table 2.
structure (smiles),measurement,setting,value
"CC(C)c1ccc(N(C)c2ccc3c(c2)OCC[C@H]3CNc2cnccc2C(=O)O)cc1.NCCCC[C@H](N)C(=O)O [Compound 1 Lysine salt, 3-({[(4R)-7-{methyl[4-(propan-2-yl)phenyl]amino}-3,4-dihydro-2H-1-benzopyran-4-yl]methyl}amino)pyridine-4-carboxylic acid, L-lysine salt]",release after 120 minutes,[1],no release at all
same,initial particle size prior to milling,[2],6-15 micrometer

# Source: US20250134874A1, “PHARMACEUTICAL FORMULATIONS COMPRISING 3-({[(4R)-7-{METHYL[4-(PROPAN-2-YL)PHENYL]AMINO}-3,4-DIHYDRO-2H-1-BENZOPYRAN-4-YL]METHYL}AMINO)PYRIDINE-4-CARBOXYLIC ACID” (TACHYON THERAPEUTICS, INC., priority 2021, published 2025)
